# Data reported in US20240416143A1, “PHOTONIC ANTIMICROBIAL WOUND SURFACE DRESSING” (The General Hospital Corporation, priority 2021, published 2024).
# What was measured:
# [1] = tested on: E. coli biofilms in ex-vivo explants; test: Photoinactivation of biofilms in ex vivo porcine partial thickness wounds by menadione + aBL; type: cell-based, Escherichia coli
# Protocol: Skin was handled and sanitized with 70% isopropanol solution after hair shaving. The explants and inner wounds were created using a 12 mm and 4 mm biopsy punches respectively. The explants were placed in 12 wells plates using a (8 μm pore) inserts (Corning™ Falcon™). 1 mL of DMEM media was added to each well in the plate before the insert. After 24 hours, the inner wounds in the explants were inoculated with 20 μL of 10^8 CFU/mL of bacterial solution. After that, the explants were incubated at 37° C. and 5% CO2 for 48 hours to ensure the growth of a mature bacterial biofilm. The inner wounds of the explants were replenished daily with fresh BHI media to ensure that the wounds are hydrated.
# 48 hours following the inoculation, mature monobacterial biofilms of MRSA, P. aeruginosa, and E. coli were obtained with 8.00 log10 CFU/g per wound bed on each explant. MRSA biofilms in explant were reduced by 0.81 log10 CFU/g after the treatment of just aBL 250 J/cm^2 (50 mW/cm^2). However, MRSA biofilms in ex-vivo porcine skin were reduced by up to 4.18 log10 CFU/g when treated with aBL combined with menadione (200 μg/mL). For MRSA biofilms, the log reduction of mature monobacterial biofilm increased as the menadione concentration increased (see FIGS. 16A-16B). […]
# MRSA [2] = test: General ROS by DCFH-DA assay in bacteria; type: cell-based, methicillin-resistant Staphylococcus aureus
# Protocol: 1.2.9.1 General ROS measured by […] (DCFH-DA) assay: DCF-DA was purchased from Thermofisher. […] The production of ROS by menadione when combined with blue light was measured in the presence and absence of bacteria. The bacteria (MRSA) was grown in BHI broth medium with shaking overnight. Cells were collected by centrifugation at 4,000 rpm for 5 minutes and resuspended in PBS in the stationary growth phase culture of 1×10^8 CFU/mL. The microbial suspension was transferred to a 35×12-mm dish, mixed with 10 μg/mL of menadione, and stained with 10 μM DCFH-DA solution per the manufacturer's instruction. The solutions (with and without bacteria) were irradiated with the blue light at 50 mW/cm^2 and the samples were collected every 15 minutes to be analyzed by Microplate Spectrofluorometer (SPECTRAmax®, Molecular Devices, USA) at λex=495 nm and λem=525 nm. The control and the menadione/dark groups were generated under the same conditions without irradiation.
# We investigated the possibility that minocycline and doxycycline might be acting as a photosensitizer. To do so, the production of ROS by minocycline and doxycycline combined with blue light was measured by the ROS probe DCF in MRSA. From FIG. 28, it can be observed that each of minocycline and doxycycline when combined with blue light at 405 nm produced ROS.
# MRSA [3] = test: Singlet oxygen assay (SOSG) in bacteria; type: cell-based, methicillin-resistant Staphylococcus aureus; conditions: 10 μg/mL menadione, 200 J/cm^2
# Protocol: 1.2.9.2 Singlet oxygen ^1O2 assay: The singlet oxygen was measured by Singlet Oxygen Sensor Green Reagent (SOSG) (Thermofisher). In the presence of singlet oxygen, SOSG emits a green fluorescence similar to that of fluorescein (excitation/emission maxima ˜504/525 nm). The MRSA were grown in BHI broth medium with shaking overnight. Cells were collected by centrifugation at 4,000 rpm for 5 minutes and resuspended in PBS in the stationary growth phase culture of 1×10^8 CFU/mL. The microbial suspension was transferred to a 35×12-mm dish, mixed with 10 μg/mL of menadione, and stained with 10 μM SOSG solution per the manufacturer's instruction. The bacteria were irradiated with the blue light at 50 mW/cm^2 and the samples were collected each 15 minutes to be analyzed by Microplate Spectrofluorometer (SPECTRAmax®, Molecular Devices, USA) at λex=504 nm and λem=525 nm. The control and the menadione/dark groups were generated under the same conditions without irradiation.
# NorA efflux pump = NorA efflux pump (Staphylococcus aureus, UniProt P0A0J7); conditions: cited from earlier work
# Sequence of NorA efflux pump (P0A0J7 whole entry): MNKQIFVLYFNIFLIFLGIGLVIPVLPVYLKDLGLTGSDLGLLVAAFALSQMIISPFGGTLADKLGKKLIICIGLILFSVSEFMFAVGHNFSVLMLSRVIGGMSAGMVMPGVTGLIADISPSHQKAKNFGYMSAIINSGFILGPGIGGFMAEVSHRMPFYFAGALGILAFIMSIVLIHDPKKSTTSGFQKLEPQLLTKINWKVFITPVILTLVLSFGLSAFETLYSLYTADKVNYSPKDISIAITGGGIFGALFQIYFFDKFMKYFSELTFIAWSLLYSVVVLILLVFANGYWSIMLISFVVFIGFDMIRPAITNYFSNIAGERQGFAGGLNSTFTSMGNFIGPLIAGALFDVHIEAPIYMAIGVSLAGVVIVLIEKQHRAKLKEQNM
compound,measurement,setting,value
"CC1=CC(=O)c2ccccc2C1=O [menadione, 2-methyl-1,4-naphthoquinone]",response of biofilms to aBL and menadione,[1],did not respond
same,"production of ROS measured by DCF, menadione+aBL vs aBL alone","MRSA [2]; MRSA, 10 μg/mL menadione, 180 J/cm^2",two times higher
same,ROS generation in bacteria by menadione in the dark,MRSA [2]; absolute dark,does not appear to generate significant ROS
same,"increase of total ROS, menadione combined with aBL","MRSA [2]; bacteria, menadione + aBL",2.5 fold
same,"singlet oxygen (SOSG), menadione+aBL vs aBL alone",MRSA [3],1.5 times
same,inhibition of efflux pump gene expression and efflux pump function,NorA efflux pump,significant inhibition
